One may read the Km as the concentration of substrate that gives half-maximal velocity.

Structures are written as SMILES.

Among the data in patent publication US5614374A, “Glycerol dehydrogenase, process for its production and its use” (Toyo Boseki Kabushiki Kaisha, priority 1992, dated 1997) are Km values, retold here.

Test [1] has as its system PQQ-dependent soluble glycerol dehydrogenase from Pseudomonas sp. TE3493 (FERM BP-4169). The experiment in a line: Km determination of purified glycerol dehydrogenase (ferricyanide activity assay). The format is biochemical. To be noted: purified enzyme of Example 1. The method, then: (§1) Hereunder is explained a method for the determination of the activity of the novel glycerol dehydrogenase according to the present invention. To the reaction solution are added 0.7 ml of a 50 mM Tris--HCl buffer solution, 0.1 ml of a 0.1 M glycerol and the enzyme solution to a total volume of 0.9 ml. The mixture was preheated at 25° C. for 5 minutes, and 0.1 ml of a 0.1 M potassium ferricyanide was added thereto for the initiation of the reaction. The reaction is terminated by addition of 0.5 ml of ferric sulfate/Dupanol reagent thereto, after which 3.5 ml of distilled water is added thereto to a total volume of 5 ml. Then the mixture was allowed to stand at 25° C. for 30 minutes, followed by measurement of absorbance at 660 nm. A blank test is carried out in the same manner as the above-mentioned one, but adding distilled water instead of the enzyme solution. The activity of glycerol dehydrogenase is expressed with one unit (U) being defined as the enzyme activity which oxidizes 1 μmole of glycerol in 1 minute under the conditions specified above.
In a 500 ml Sakaguchi flask there were placed 100 ml of a culture medium which contained 0.5% glycerol, 0.2% NaNO3, 0.2% (NH4)2 SO4, 1% K2 HPO4, 1% KH2 PO4, 0.02% MgSO4.7H2 O and 0.05% yeast extracts, followed by autoclaving at 121° C. for 15 minutes. One loopful of cells of Pseudomonas sp. […]

The subject of test [2] is PQQ-dependent membrane-bound glycerol dehydrogenase from Gluconobacter industrius IFO 3260. The experiment in a line: Km determination of comparison glycerol dehydrogenase (membrane-bound). To be noted: enzyme preparation of Comparison 1, solubilized with dimethyldodecylamine oxide. Format: biochemical. The method, then:
as §1
Gluconobacter industrious IFO3260 was cultivated in the same manner as in Example 1. The culture solution was centrifuged to harvest the cells which were then subjected to a conventional manner to yield a membrane fraction. […]

`OCC(O)CO` [glycerol]: the Michaelis-Menten constant (Km) in test [1] came out at 2.45 mM; in test [2], 34 mM.
